Assay results taken from PubChem BioAssay (NCI).
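Protocol summary: plate cells (96-well), add compound at 5 concentrations, incubate 48 h, interpolate endpoints linearly. TGI marks complete inhibition of growth.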

What was measured:
Test in all cases: inhibition of tumour cell growth, NCI panel, 48 h
OVCAR-3 ovarian = system: OVCAR-3 ovarian
NCI-H460 lung = system: NCI-H460 lung
SW-620 colon = system: SW-620 colon
K-562 leukemia = system: K-562 leukemia
SF-268 CNS = system: SF-268 CNS
MCF7 breast = system: MCF7 breast
BT-549 breast = system: BT-549 breast
U251 CNS = system: U251 CNS
SK-MEL-28 melanoma = system: SK-MEL-28 melanoma
COLO 205 colon = system: COLO 205 colon
NCI-H23 lung = system: NCI-H23 lung
MOLT-4 leukemia = system: MOLT-4 leukemia
HT29 colon = system: HT29 colon
UACC-257 melanoma = system: UACC-257 melanoma
MDA-MB-435 = system: MDA-MB-435
KM12 colon = system: KM12 colon
ACHN renal = system: ACHN renal
SR leukemia = system: SR leukemia
SF-295 CNS = system: SF-295 CNS
HOP-92 NSCLC = system: HOP-92 NSCLC
CAKI-1 renal = system: CAKI-1 renal
HOP-62 NSCLC = system: HOP-62 NSCLC
EKVX NSCLC = system: EKVX NSCLC
IGROV1 ovarian = system: IGROV1 ovarian
A498 renal = system: A498 renal
MDA-MB-231 breast = system: MDA-MB-231 breast
OVCAR-8 ovarian = system: OVCAR-8 ovarian
SN12C renal = system: SN12C renal
A549 NSCLC = system: A549 NSCLC
OVCAR-5 ovarian = system: OVCAR-5 ovarian
NCI-H522 lung = system: NCI-H522 lung
OVCAR-4 ovarian = system: OVCAR-4 ovarian
RPMI-8226 leukemia = system: RPMI-8226 leukemia
HS 578T breast = system: HS 578T breast
LOX IMVI melanoma = system: LOX IMVI melanoma
SNB-19 CNS = system: SNB-19 CNS
MALME-3M melanoma = system: MALME-3M melanoma
HCC-2998 colon = system: HCC-2998 colon
SK-MEL-5 melanoma = system: SK-MEL-5 melanoma
HCT-15 colon = system: HCT-15 colon
NCI/ADR-RES ovarian = system: NCI/ADR-RES ovarian
SK-OV-3 ovarian = system: SK-OV-3 ovarian
PC-3 prostate = system: PC-3 prostate
CCRF-CEM leukemia = system: CCRF-CEM leukemia
MDA-N = system: MDA-N
SK-MEL-2 melanoma = system: SK-MEL-2 melanoma
UACC-62 melanoma = system: UACC-62 melanoma
TK-10 renal = system: TK-10 renal
DU-145 prostate = system: DU-145 prostate
786-0 renal = system: 786-0 renal
M14 melanoma = system: M14 melanoma
T-47D breast = system: T-47D breast
UO-31 renal = system: UO-31 renal
HCT-116 colon = system: HCT-116 colon
SNB-75 CNS = system: SNB-75 CNS
RXF 393 renal = system: RXF 393 renal
NCI-H226 lung = system: NCI-H226 lung
HL-60(TB) leukemia = system: HL-60(TB) leukemia
SF-539 CNS = system: SF-539 CNS

**Q.** Which results are given for `COc1ccc(N2C=Nn3c(nc4sc5c(c4c3=O)CCCC5)C2)cc1`?
**A.** TGI (OVCAR-3 ovarian): > 100 µM; TGI (NCI-H460 lung): > 100 µM; TGI (SW-620 colon): > 100 µM; TGI (K-562 leukemia): > 100 µM; TGI (SF-268 CNS): > 100 µM; TGI (MCF7 breast): > 100 µM; TGI (BT-549 breast): > 100 µM; TGI (U251 CNS): > 100 µM; TGI (SK-MEL-28 melanoma): > 100 µM; TGI (COLO 205 colon): > 100 µM; TGI (NCI-H23 lung): > 100 µM; TGI (MOLT-4 leukemia): > 100 µM; TGI (HT29 colon): > 100 µM; TGI (UACC-257 melanoma): > 100 µM; TGI (MDA-MB-435): > 100 µM; TGI (KM12 colon): > 100 µM; TGI (ACHN renal): 53.2 µM; TGI (SR leukemia): > 100 µM; TGI (SF-295 CNS): 68 µM; TGI (HOP-92 NSCLC): 41.8 µM; TGI (CAKI-1 renal): > 100 µM; TGI (HOP-62 NSCLC): 13.5 µM; TGI (EKVX NSCLC): > 100 µM; TGI (IGROV1 ovarian): > 100 µM; TGI (A498 renal): 41.8 µM; TGI (MDA-MB-231 breast): 40 µM; TGI (OVCAR-8 ovarian): > 100 µM; TGI (SN12C renal): > 100 µM; TGI (A549 NSCLC): > 100 µM; TGI (OVCAR-5 ovarian): > 100 µM; TGI (NCI-H522 lung): > 100 µM; TGI (OVCAR-4 ovarian): > 100 µM; TGI (RPMI-8226 leukemia): > 100 µM; TGI (HS 578T breast): 9.6 µM; TGI (LOX IMVI melanoma): > 100 µM; TGI (SNB-19 CNS): > 100 µM; TGI (MALME-3M melanoma): 78 µM; TGI (HCC-2998 colon): > 100 µM; TGI (SK-MEL-5 melanoma): > 100 µM; TGI (HCT-15 colon): > 100 µM; TGI (NCI/ADR-RES ovarian): > 100 µM; TGI (SK-OV-3 ovarian): > 100 µM; TGI (PC-3 prostate): > 100 µM; TGI (CCRF-CEM leukemia): > 100 µM; TGI (MDA-N): > 100 µM; TGI (SK-MEL-2 melanoma): 93.1 µM; TGI (UACC-62 melanoma): > 100 µM; TGI (TK-10 renal): > 100 µM; TGI (DU-145 prostate): > 100 µM; TGI (786-0 renal): 20.7 µM; TGI (M14 melanoma): > 100 µM; TGI (T-47D breast): > 100 µM; TGI (UO-31 renal): > 100 µM; TGI (HCT-116 colon): > 100 µM; TGI (SNB-75 CNS): > 100 µM; TGI (RXF 393 renal): 57.1 µM; TGI (NCI-H226 lung): > 100 µM

**Q.** Which results are given for `CCOC(=O)C(NC(=O)c1ccccc1)(N1CCOCC1)C(F)(F)F` (centres undefined)?
**A.** TGI (OVCAR-3 ovarian): > 100 µM; TGI (SW-620 colon): > 100 µM; TGI (K-562 leukemia): > 100 µM; TGI (SF-268 CNS): > 100 µM; TGI (MCF7 breast): > 100 µM; TGI (HL-60(TB) leukemia): > 100 µM; TGI (BT-549 breast): > 100 µM; TGI (U251 CNS): > 100 µM; TGI (SK-MEL-28 melanoma): > 100 µM; TGI (COLO 205 colon): > 100 µM; TGI (NCI-H23 lung): > 100 µM; TGI (MOLT-4 leukemia): > 100 µM; TGI (HT29 colon): > 100 µM; TGI (UACC-257 melanoma): > 100 µM; TGI (MDA-MB-435): > 100 µM; TGI (KM12 colon): > 100 µM; TGI (ACHN renal): > 100 µM; TGI (SR leukemia): > 100 µM; TGI (SF-295 CNS): > 100 µM; TGI (HOP-92 NSCLC): > 100 µM; TGI (CAKI-1 renal): > 100 µM; TGI (HOP-62 NSCLC): > 100 µM; TGI (EKVX NSCLC): > 100 µM; TGI (IGROV1 ovarian): > 100 µM; TGI (MDA-MB-231 breast): > 100 µM; TGI (OVCAR-8 ovarian): > 100 µM; TGI (SN12C renal): > 100 µM; TGI (A549 NSCLC): > 100 µM; TGI (OVCAR-5 ovarian): > 100 µM; TGI (NCI-H522 lung): > 100 µM; TGI (OVCAR-4 ovarian): > 100 µM; TGI (RPMI-8226 leukemia): > 100 µM; TGI (HS 578T breast): > 100 µM; TGI (LOX IMVI melanoma): > 100 µM; TGI (SNB-19 CNS): > 100 µM; TGI (MALME-3M melanoma): > 100 µM; TGI (HCC-2998 colon): > 100 µM; TGI (SK-MEL-5 melanoma): > 100 µM; TGI (HCT-15 colon): > 100 µM; TGI (NCI/ADR-RES ovarian): > 100 µM; TGI (SK-OV-3 ovarian): > 100 µM; TGI (PC-3 prostate): > 100 µM; TGI (CCRF-CEM leukemia): > 100 µM; TGI (MDA-N): > 100 µM; TGI (SK-MEL-2 melanoma): > 100 µM; TGI (UACC-62 melanoma): > 100 µM; TGI (TK-10 renal): > 100 µM; TGI (DU-145 prostate): > 100 µM; TGI (786-0 renal): > 100 µM; TGI (SF-539 CNS): > 100 µM; TGI (M14 melanoma): > 100 µM; TGI (T-47D breast): > 100 µM; TGI (UO-31 renal): > 100 µM; TGI (HCT-116 colon): > 100 µM; TGI (SNB-75 CNS): > 100 µM; TGI (RXF 393 renal): > 100 µM; TGI (NCI-H226 lung): > 100 µM
